System: triticale (var. Bellac)
Assay: Effect of inactive yeast and/or yeast derivatives in combination with nitrogen sources on plant growth (pot test, dry weight of aerial parts)
Type: in vivo
Conditions: triticale seeds in 20 g soil, 30 days, nitrogen 15 kg/ha, applied liquid to soil, letters = significance groups (p<0,1 Dunnett)
Experimental: Seeds of triticale (var. Bellac) coated with insectide Gaucho 350 and fungicide Rédigo® (Bayer) were used in the study. The tested nitrogenous components were the following: urea and calcium nitrate.
Two seeds were grown in individual plastic pots or cells containing equal quantity of soil (20 g). The treatments T1 to T4, T6, T7, T9, T10 and T13 (see Table 1) were distributed randomly in lines, with each line comprising of all treatments. Treatments T1 to T4, T6, T7, T9, T10 and T13 were repeated seven times and the experiment was repeated twice over time.
The treatments T1 to T4, T6, T7, T9, T10 and T13 were applied, in a liquid form, directly in the soil surrounding the seeds. The treatments were mixed with sterile distilled water in a total 5 ml samples. For the negative control, 5 ml of sterile distilled water was added. Seeds were grown under controlled conditions for 30 days. Growth conditions were 18/15 C for 10/14 hours (day/night) and 70% RH. Growth measurements were taken by measuring length and dry weight of the aerial part of the plants.
The growth in weight of the plants (the dry weight of the aerial parts) for each treatment was compared by statistical analysis.

## NC(N)=O [Treatment T3, Urea]
Table 5, urea series
  Dry weight gain average: 0.153bc

## O=[N+]([O-])[O-].O=[N+]([O-])[O-].[Ca+2] [Treatment T4, Calcium nitrate]
Table 4, calcium nitrate series
  Dry weight gain average: 0.106b

From patent publication US11377393B2, “Method and composition for improving plant growth” (DANSTAR FERMENT AG, priority 2016, dated 2022)
